Test results reported in ChEMBL document CHEMBL3580538, “Cytotoxic and antiviral nitrobenzoyl sesquiterpenoids from the marine-derived fungus Aspergillus ochraceus Jcma1F17” (Medchemcomm, 2014).

Columns and labels:
[1] = tested on: HL-60; test: Cytotoxicity against human HL60 cells assessed as cell viability after 72 hrs by CCK8 assay; assay type: functional, cell-based; details: HL-60, 72 h
[2] = Antiviral activity against Influenza A virus A/Hong Kong/8/68 H3N2 infected in MDCK cells assessed as reduction in virus-induced cytopathic effect after 3 days by CCK8 assay; assay type: functional, cell-based, Influenza A virus (A/Hong Kong/8/1968([…])); details: 72 h
[3] = tested on: K562; test: Cytotoxicity against human K562 cells assessed as cell viability after 72 hrs by CCK8 assay; assay type: functional, cell-based; details: K562, 72 h
[4] = tested on: U-937; test: Cytotoxicity against human U937 cells assessed as cell viability after 72 hrs by CCK8 assay; assay type: functional, cell-based; details: U-937, 72 h
[5] = tested on: NCI-H1975; test: Cytotoxicity against human NCI-H1975 cells assessed as cell viability after 72 hrs by CCK8 assay; assay type: functional, cell-based; details: NCI-H1975, 72 h
[6] = tested on: Mycobacterium tuberculosis; test: Antituberculosis activity against Mycobacterium tuberculosis H37Ra after 3 days by autoluminescent assay; assay type: functional, organism-based
[7] = Cytotoxicity against human BGC823 cells assessed as cell viability after 72 hrs by CCK8 assay; assay type: functional, cell-based; details: BGC-823, 72 h
[8] = Cytotoxicity against human HuH7 cells assessed as cell viability after 72 hrs by CCK8 assay; assay type: functional, cell-based; details: Huh-7, 72 h
[9] = tested on: HeLa; test: Cytotoxicity against human HeLa cells assessed as cell viability after 72 hrs by CCK8 assay; assay type: functional, cell-based
[10] = tested on: MOLT-4; test: Cytotoxicity against human MOLT4 cells assessed as cell viability after 72 hrs by CCK8 assay; assay type: functional, cell-based; details: MOLT-4, 72 h
[11] = tested on: Enterovirus; test: Antiviral activity against EV71 infected in african green monkey Vero cells assessed as reduction in virus-induced cytopathic effect after 72 to 96 hrs by CCK8 assay; assay type: functional, organism-based; details: Enterovirus, 71, Vero
[12] = tested on: MCF7; test: Cytotoxicity against human MCF7 cells assessed as cell viability after 72 hrs by CCK8 assay; assay type: functional, cell-based; details: MCF7, 72 h
[13] = tested on: A549; test: Cytotoxicity against human A549 cells assessed as cell viability after 72 hrs by CCK8 assay; assay type: functional, cell-based; details: A549, 72 h

SMILES | IC50 [1] | IC50 [2] | IC50 [3] | IC50 [4] | IC50 [5] | IC50 [6] | IC50 [7] | IC50 [8] | IC50 [9] | IC50 [10] | IC50 [11] | IC50 [12] | IC50 [13]
C[C@]1(COC(=O)c2ccc([N+](=O)[O-])cc2)CCC[C@@]2(C)[C@H]1[C@H](O)C=C1C(=O)OC[C@@]12O | 2440 nM | 17000 nM | 4330 nM | 1950 nM | 2080 nM | Not Active | 2320 nM | 3280 nM | 6120 nM | 2390 nM | 9400 nM | 4250 nM | 2410 nM
C[C@]1(CO)CCC[C@@]2(C)[C@H]1[C@H](OC(=O)c1ccc([N+](=O)[O-])cc1)C=C1C(=O)OC[C@@]12O | 2340 nM | 50000 nM | 4760 nM | 3970 nM | 4630 nM | Not Active | 2780 nM | 2350 nM | 6350 nM | 2110 nM | 50000 nM | 6080 nM | 2860 nM
CC(/C=C/C(=O)NO)=C\[C@@H](C)C(=O)c1ccc(N(C)C)cc1 [TRICHOSTATIN] | 30 nM | 8 nM | 160 nM | 50 nM | 90 nM | Not Active | 80 nM | 90 nM | 100 nM |  | 600 nM |  | 
